In patent US20060069132A1, “Azolecarboxamide herbicides” (priority 2004, published 2006):

Experiments:
large crabgrass = assay: Test A pre-/postemergence herbicide test; type: in vivo, Digitaria sanguinalis
Outline: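 Visual injury scores on a 0–100 scale (100 = complete control) taken about ten days post-treatment in greenhouse against untreated controls; dash means no result. Treatments: preemergence soil spray and postemergence spray to runoff on one- to two-leaf plants 2 to 10 cm tall, surfactant-containing formulation.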

rice [1] = assay: Test B pre-/postemergence herbicide test; type: in vivo, Oryza sativa; conditions: preemergence
Outline: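 Seeds were planted and treated preemergence with compounds formulated in a non-phytotoxic solvent mixture containing surfactant, while plants at the 1- to 4-leaf stage (2 to 18 cm) received postemergence sprays. Flooded paddy plants were grown to the 2-leaf stage. After 13 to 15 days in a greenhouse, injury was visually rated 0–100 against untreated controls.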

blackgrass = assay: Test B postemergence herbicide test; type: in vivo, Alopecurus myosuroides; conditions: scale 0 (no effect) to 100 (complete control); for Plant response rating, Blackgrass: Postemergence, 500 g ai/ha, visual rating after 13 to 15 days; for Blackgrass plant response rating: postemergence, 125 g ai/ha, visual rating
Outline: (§1)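 Visual control ratings, 0–100 versus untreated controls, taken after 13 to 15 days in the greenhouse. Blackgrass received a postemergence spray at the 1- to 4-leaf stage (2–18 cm); ducksalad, umbrella sedge and barnyardgrass were flooded-paddy treated at 2 leaves.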

ducksalad = assay: Test B flooded paddy test; type: in vivo, Heteranthera limosa; conditions: 1000 g ai/ha, visual rating, scale 0 to 100 (0 no effect, 100 complete control), 13 to 15 days
Outline: as §1

cocklebur = assay: Test C pre-/postemergence herbicide test; type: in vivo, Xanthium strumarium; conditions: for Cocklebur plant response rating: 500 g ai/ha
Outline: (§2)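 Visual ratings on a 0–100 scale (100 = complete control) made versus untreated controls after 12 to 14 greenhouse days. Test chemicals, formulated in surfactant-containing non-phytotoxic solvent, applied preemergence to planted seeds or postemergence to 1- to 4-leaf plants (2 to 18 cm).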

giant foxtail = assay: Test C pre-/postemergence herbicide test; type: in vivo, Setaria faberi; conditions: for Foxtail, Giant plant response rating: 500 g ai/ha
Outline: as §2

johnsongrass = assay: Test C pre-/postemergence herbicide test; type: in vivo, Sorghum halepense; conditions: for Johnsongrass plant response rating: 500 g ai/ha
Outline: as §2

common ragweed = assay: Test C pre-/postemergence herbicide test; type: in vivo, Ambrosia elatior; set-up: key to Plant response rating, Ragweed: 0 = no effect, 100 = complete control; conditions: for Ragweed plant response rating: 500 g ai/ha
Outline: as §2

[2] = system: common (oilseed) sunflower; assay: Test C pre-/postemergence herbicide test; type: in vivo, Helianthus annuus; conditions: for Plant response rating (0 = no effect, 100 = complete control), Sunflower: 62 g ai/ha; for Sunflower plant response rating: Preemergence, 500 g ai/ha, scale 0 to 100, 0 no effect, 100 complete control
Outline: as §2

rice [3] = assay: Test C flooded paddy test; type: in vivo, Oryza sativa; conditions: for Plant response rating, Rice: 500 g ai/ha, visual rating after 12 to 14 days
Outline: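 Injury scored visually against controls on a 0 (no effect) to 100 (complete control) scale, 12 to 14 days after treatment in greenhouse. Flooded paddy plants treated at 2-leaf stage; postemergence plants at 1- to 4-leaf stage, 2 to 18 cm tall.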

[4] = Postemergence, 500 g ai/ha, 0 to 100 scale, 0 no effect, 100 complete control
[5] = Postemergence, 2000 g ai/ha, 0 to 100 scale, 0 no effect, 100 complete control
[6] = Preemergence, 500 g ai/ha, visual rating, 0 to 100 scale (0 no effect, 100 complete control)
[7] = 125 g ai/ha, 0 to 100 scale, 0 is no effect, 100 is complete control
[8] = 125 g ai/ha, scale 0 (no effect) to 100 (complete control), visual, 12 to 14 days, preemergence
[9] = 250 g ai/ha, scale 0 to 100 (0 no effect, 100 complete control), visual, 12 to 14 days, preemergence
[10] = Postemergence, 250 g ai/ha, scale 0 to 100, 0 no effect, 100 complete control
[11] = Preemergence, scale 0 to 100, 0 no effect, 100 complete control
[12] = postemergence, 125 g ai/ha, scale 0 to 100
[13] = postemergence, 62 g ai/ha, scale 0 to 100
[14] = 62 g ai/ha, scale 0 to 100 (0 no effect, 100 complete control)
[15] = 125 g ai/ha, scale of 0 to 100, 0 is no effect, 100 is complete control
[16] = 250 g ai/ha, scale of 0 to 100, 0 is no effect, 100 is complete control
[17] = scale 0 to 100 (0 no effect, 100 complete control)

## CCOC(=O)c1cc(NC(=O)c2cc(C(C)(C)C)nn2CC)ccc1OC [Compound 96]
Large crabgrass; [4]
  Crabgrass, Large plant response rating: 30
Large crabgrass; [5]
  Plant response rating, Crabgrass, Large: 70
Large crabgrass; [6]
  Crabgrass, Large plant response rating: 80
Large crabgrass; Preemergence, 2000 g ai/ha, 0 to 100 scale, 0 no effect, 100 complete control
  Crabgrass, Large plant response rating: 100
Rice [1]; 500 g ai/ha, visual rating 0-100, 0 no effect, 100 complete control
  Plant response rating, Rice: 70
Rice [1]; [7]
  Plant response rating, Rice: 60
blackgrass
  Plant response rating, Blackgrass: 20
  Blackgrass plant response rating: 0
ducksalad
  Ducksalad plant response rating: 90
cocklebur; 62 g ai/ha, preemergence
  Plant response rating (0 = no effect, 100 = complete control), Cocklebur: 0
cocklebur; [8]
  Plant response rating, Cocklebur: 5
cocklebur; [9]
  Plant response rating, Cocklebur: 20
cocklebur; Postemergence, scale 0 to 100
  Cocklebur plant response rating: 95
cocklebur; [10]
  Plant response rating, Cocklebur: 90
cocklebur; [11]
  Cocklebur plant response rating: 90
cocklebur; [12]
  Plant response rating, Cocklebur: 10
cocklebur; [13]
  Plant response rating, Cocklebur: 5
Giant foxtail; 62 g ai/ha, preemergence
  Plant response rating (0 = no effect, 100 = complete control), Foxtail, Giant: 70
Giant foxtail; [8]
  Plant response rating, Foxtail, Giant: 100
Giant foxtail; [9]
  Plant response rating, Foxtail, Giant: 100
Giant foxtail; Postemergence, scale 0 to 100
  Foxtail, Giant plant response rating: 60
Giant foxtail; [10]
  Plant response rating, Foxtail, Giant: 45
Giant foxtail; [11]
  Foxtail, Giant plant response rating: 100
Giant foxtail; [12]
  Plant response rating, Foxtail, Giant: 20
Giant foxtail; [13]
  Plant response rating, Foxtail, Giant: 10
johnsongrass; 62 g ai/ha, preemergence
  Plant response rating (0 = no effect, 100 = complete control), Johnsongrass: 40
johnsongrass; [8]
  Plant response rating, Johnsongrass: 60
johnsongrass; Postemergence, scale 0 to 100
  Johnsongrass plant response rating: 50
johnsongrass; [10]
  Plant response rating, Johnsongrass: 50
johnsongrass; [11]
  Johnsongrass plant response rating: 95
johnsongrass; [12]
  Plant response rating, Johnsongrass: 50
johnsongrass; [13]
  Plant response rating, Johnsongrass: 0
Common ragweed; 62 g ai/ha, preemergence
  Plant response rating (0 = no effect, 100 = complete control), Ragweed: 50
Common ragweed; [8]
  Plant response rating, Ragweed: 90
Common ragweed; Postemergence, scale 0 to 100
  Ragweed plant response rating: 85
Common ragweed; [10]
  Plant response rating, Ragweed: 80
Common ragweed; [11]
  Ragweed plant response rating: 100
Common ragweed; [12]
  Plant response rating, Ragweed: 50
Common ragweed; [13]
  Plant response rating, Ragweed: 50
[2]; preemergence
  Plant response rating (0 = no effect, 100 = complete control), Sunflower: 0
[2]; [8]
  Plant response rating, Sunflower: 0
[2]
  Sunflower plant response rating: 35
Rice [3]; [14]
  Rice plant response rating: 40
Rice [3]; [15]
  Rice plant response rating: 45
Rice [3]; [16]
  Rice plant response rating: 70
Rice [3]; [17]
  Plant response rating, Rice: 75

## CC(=NO)c1cccc(NC(=O)c2cc(C(C)(C)C)nn2CCF)c1 [Compound 115]
Large crabgrass; [4]
  Crabgrass, Large plant response rating: 75
Large crabgrass; [5]
  Plant response rating, Crabgrass, Large: 80
Large crabgrass; [6]
  Crabgrass, Large plant response rating: 100
Large crabgrass; Preemergence, 2000 g ai/ha, visual rating, 0 to 100 scale (0 no effect, 100 complete control)
  Crabgrass, Large plant response rating: 100
Rice [1]; [7]
  Plant response rating, Rice: 0
blackgrass
  Plant response rating, Blackgrass: 20
  Blackgrass plant response rating: 10
ducksalad
  Ducksalad plant response rating: 90
cocklebur; 62 g ai/ha, preemergence
  Plant response rating (0 = no effect, 100 = complete control), Cocklebur: 20
cocklebur; [8]
  Plant response rating, Cocklebur: 40
cocklebur; [9]
  Plant response rating, Cocklebur: 50
cocklebur; Postemergence, scale 0 to 100
  Cocklebur plant response rating: 100
cocklebur; [10]
  Plant response rating, Cocklebur: 100
cocklebur; [11]
  Cocklebur plant response rating: 100
cocklebur; [12]
  Plant response rating, Cocklebur: 90
cocklebur; [13]
  Plant response rating, Cocklebur: 90
Giant foxtail; 62 g ai/ha, preemergence
  Plant response rating (0 = no effect, 100 = complete control), Foxtail, Giant: 40
Giant foxtail; [8]
  Plant response rating, Foxtail, Giant: 90
Giant foxtail; [9]
  Plant response rating, Foxtail, Giant: 100
Giant foxtail; Postemergence, scale 0 to 100
  Foxtail, Giant plant response rating: 80
Giant foxtail; [10]
  Plant response rating, Foxtail, Giant: 60
Giant foxtail; [11]
  Foxtail, Giant plant response rating: 100
Giant foxtail; [12]
  Plant response rating, Foxtail, Giant: 40
Giant foxtail; [13]
  Plant response rating, Foxtail, Giant: 40
johnsongrass; 62 g ai/ha, preemergence
  Plant response rating (0 = no effect, 100 = complete control), Johnsongrass: 70
johnsongrass; [8]
  Plant response rating, Johnsongrass: 100
johnsongrass; Postemergence, scale 0 to 100
  Johnsongrass plant response rating: 100
johnsongrass; [10]
  Plant response rating, Johnsongrass: 80
johnsongrass; [11]
  Johnsongrass plant response rating: 100
johnsongrass; [12]
  Plant response rating, Johnsongrass: 50
johnsongrass; [13]
  Plant response rating, Johnsongrass: 30
Common ragweed; 62 g ai/ha, preemergence
  Plant response rating (0 = no effect, 100 = complete control), Ragweed: 70
Common ragweed; [8]
  Plant response rating, Ragweed: 80
Common ragweed; Postemergence, scale 0 to 100
  Ragweed plant response rating: 90
Common ragweed; [10]
  Plant response rating, Ragweed: 70
Common ragweed; [11]
  Ragweed plant response rating: 100
Common ragweed; [12]
  Plant response rating, Ragweed: 70
Common ragweed; [13]
  Plant response rating, Ragweed: 70
[2]; preemergence
  Plant response rating (0 = no effect, 100 = complete control), Sunflower: 0
[2]
  Sunflower plant response rating: 10
Rice [3]; [14]
  Rice plant response rating: 55
Rice [3]; [15]
  Rice plant response rating: 65
Rice [3]; [16]
  Rice plant response rating: 75
Rice [3]; [17]
  Plant response rating, Rice: 75
